Experimental data reported in US20230285434A1 (priority 2020, published 2023).
Where “and” joins values, the source holds several entries; their conditions need not be identical. Identical values can stand only once. Counter-ions that a name gives are not always drawn.

Columns and labels:
Lassa virus [1] = assay: microbe, parasite or virus in culture; type: cell-based
Lassa virus [2] = assay: microbe, parasite or virus in culture; type: cell-based; conditions: Mammarenavirus lassaense, Vero C1008
[3] = Mammarenavirus lassaense, Huh-7

## NC(=O)c1cn([C@@H]2O[C@H](CO)[C@@H](O)[C@H]2O)c2ncnc(N)c12 [Oya1, 4-amino-7-((2R,3R,4S,5R)-3,4-dihydroxy-5-(hydroxymethyl)tetrahydrofuran-2-yl)-7H-pyrrolo[2,3-d]pyrimidine-5-carboxamide]
Lassa virus [1]; 0.0047 µM
  Inhibition: 33.96% and 28.083% and 24.36% and 25.62% and 25.65%
Lassa virus [1]; 0.0094 µM
  Inhibition: 26.74% and 30.9% and 23.28% and 15.83% and 22.14% and 20.065%
Lassa virus [1]; [3]
  inhibition at 0.0047 µM: 32.3%
  inhibition at 0.15 µM: 79.9%
  inhibition at 0.3 µM: 97.6%
  inhibition at 0.6 µM: 98.8%
Lassa virus [2]
  inhibition at 0.075 µM: 89.2%
  inhibition at 0.15 µM: 100%
  inhibition at 0.3 µM: 101%
  inhibition at 0.6 µM: 101%

## Cl.NC(=O)c1cn([C@@H]2O[C@H](CO)[C@@H](O)[C@H]2O)c2ncnc(N)c12 [Oya2, 4-amino-7-((2R,3R,4S,5R)-3,4-dihydroxy-5-(hydroxymethyl)tetrahydrofuran-2-yl)-7H-pyrrolo[2,3-d]pyrimidine-5-carboxamide hydrochloride]
Lassa virus [1]; 0.0047 µM, hydrochloride
  Inhibition: 28.74% and 26.14% and 27.5%
Lassa virus [1]; 0.0094 µM, hydrochloride
  Inhibition: 21.1% and 20.68% and 22.57%

## CN(C)CCOc1ccc(/C(=C(/CCCl)c2ccccc2)c2ccccc2)cc1 [Toremifene citrate, reference compound]
Lassa virus [1]; 0.4688 µM
  Inhibition: 31.7829% and 32.93% and 31.98% and 27.3% and 32.75%
Lassa virus [1]; 0.9375 µM
  Inhibition: 22.38% and 19.16% and 30.38% and 25.19% and 18.19%
Lassa virus [1]; 1.875 µM
  Inhibition: 18.84% and 15.13% and 24.79% and 16.6% and 19.82%
Lassa virus [1]; 3.75 µM
  Inhibition: 15.93% and 10.32% and 20.17% and 17.07% and 18.53%
Lassa virus [1]; [3]
  inhibition at 0.4688 µM: 37.4%
  inhibition at 0.9375 µM: 29.9%
  inhibition at 1.875 µM: 20.9%
  inhibition at 3.75 µM: 16.3%
